Test results published in PubChem BioAssay AID256 (DTP/NCI, 2004).
Inconclusive results and toxic doses are left out. Rule for the calls: active = survival T/C of 150% or more; inactive = T/C below 125% in these data.

Test system: CD2F1 mice, L1210 leukemia ip, survival T/C
Assay: NCI In Vivo Anticancer Drug Screen. Data for tumor model L1210 Leukemia (intraperitoneal) in CD2F1 (CDF1) mice
Details: higher = longer survival
Outline: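 Vehicle-treated tumor-bearing mice served as controls (C) for compound-treated mice (T). Reported figure is T divided by C.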

Measured: T/C

COc1cc([C@@H]2c3cc4c(cc3[C@@H](OC3OC5COC(C)OC5C(O)C3O)[C@H]3COC(=O)[C@H]23)OCO4)cc(OC)c1O (stereo partly drawn)
active: endpoint: mean survival time, dose: 0.5 mg/kg/injection, schedule: Q03HX024 (ip), vehicle: saline 165 % of control | endpoint: mean survival time, dose: 1.0 mg/kg/injection, schedule: Q03HX024 (ip), vehicle: saline 360 % of control | endpoint: mean survival time, dose: 2.0 mg/kg/injection, schedule: Q01DX009 (ip), vehicle: saline 151 % of control | endpoint: mean survival time, dose: 4.0 mg/kg/injection, schedule: Q01DX009 (ip), vehicle: saline 246 % of control | endpoint: mean survival time, dose: 8.0 mg/kg/injection, schedule: Q04DX003 (ip), vehicle: saline 181 % of control | endpoint: mean survival time, dose: 16.0 mg/kg/injection, schedule: Q04DX003 (ip), vehicle: saline 289 % of control | endpoint: mean survival time, dose: 32.0 mg/kg/injection, schedule: Q04DX003 (ip), vehicle: saline 542 % of control | endpoint: median survival time, dose: 1.0 mg/kg/injection, schedule: Q03HX008 (ip), vehicle: other 162 % of control | endpoint: median survival time, dose: 1.0 mg/kg/injection, schedule: Q03HX016 (ip), vehicle: other 175 % of control | endpoint: median survival time, dose: 1.0 mg/kg/injection, schedule: Q03HX024 (ip), vehicle: other 218 % of control | endpoint: median survival time, dose: 2.0 mg/kg/injection, schedule: Q01DX009 (ip), vehicle: other 175 % of control | endpoint: median survival time, dose: 2.0 mg/kg/injection, schedule: Q01DX009 (ip), vehicle: saline 152 % of control | endpoint: median survival time, dose: 2.0 mg/kg/injection, schedule: Q01DX009 (sc), vehicle: other 150 % of control | endpoint: median survival time, dose: 2.0 mg/kg/injection, schedule: Q03HX008 (ip), vehicle: other 175 % of control | endpoint: median survival time, dose: 2.0 mg/kg/injection, schedule: Q03HX016 (ip), vehicle: other 212 % of control | endpoint: median survival time, dose: 2.0 mg/kg/injection, schedule: Q03HX024 (ip), vehicle: other 206 % of control | endpoint: median survival time, dose: 4.0 mg/kg/injection, schedule: Q01DX009 (ip), vehicle: other 218 % of control | endpoint: median survival time, dose: 4.0 mg/kg/injection, schedule: Q01DX009 (ip), vehicle: saline 195 % of control | endpoint: median survival time, dose: 4.0 mg/kg/injection, schedule: Q01DX009 (sc), vehicle: other 168 % of control | endpoint: median survival time, dose: 4.0 mg/kg/injection, schedule: Q03HX008 (ip), vehicle: other 181 % of control | endpoint: median survival time, dose: 4.0 mg/kg/injection, schedule: Q03HX016 (ip), vehicle: other 187 % of control | endpoint: median survival time, dose: 8.0 mg/kg/injection, schedule: Q01DX001 (ip), vehicle: other 162 % of control | endpoint: median survival time, dose: 8.0 mg/kg/injection, schedule: Q01DX009 (ip), vehicle: saline 220 % of control | endpoint: median survival time, dose: 8.0 mg/kg/injection, schedule: Q04DX003 (ip), vehicle: other 193 % of control | endpoint: median survival time, dose: 8.0 mg/kg/injection, schedule: Q08DX002 (ip), vehicle: other 168 % of control | endpoint: median survival time, dose: 16.0 mg/kg/injection, schedule: Q01DX001 (ip), vehicle: other 162 % of control
inactive: endpoint: mean survival time, dose: 2.0 mg/kg/injection, schedule: Q03HX024 (ip), vehicle: saline 124 % of control | endpoint: mean survival time, dose: 8.0 mg/kg/injection, schedule: Q01DX009 (ip), vehicle: saline 111 % of control | endpoint: mean survival time, dose: 16.0 mg/kg/injection, schedule: Q01DX009 (ip), vehicle: saline 87 % of control | endpoint: median survival time, dose: 4.0 mg/kg/injection, schedule: Q01DX009 (oral), vehicle: Klucel (hydroxypropylcellulose) (HPC) 105 % of control | endpoint: median survival time, dose: 4.0 mg/kg/injection, schedule: Q03HX008 (oral), vehicle: Klucel (hydroxypropylcellulose) (HPC) 111 % of control | endpoint: median survival time, dose: 4.0 mg/kg/injection, schedule: Q03HX016 (oral), vehicle: Klucel (hydroxypropylcellulose) (HPC) 100 % of control | endpoint: median survival time, dose: 4.0 mg/kg/injection, schedule: Q03HX024 (ip), vehicle: other 118 % of control | endpoint: median survival time, dose: 4.0 mg/kg/injection, schedule: Q03HX024 (oral), vehicle: Klucel (hydroxypropylcellulose) (HPC) 88 % of control | endpoint: median survival time, dose: 8.0 mg/kg/injection, schedule: Q01DX001 (sc), vehicle: other 112 % of control | endpoint: median survival time, dose: 8.0 mg/kg/injection, schedule: Q01DX009 (oral), vehicle: Klucel (hydroxypropylcellulose) (HPC) 116 % of control | endpoint: median survival time, dose: 8.0 mg/kg/injection, schedule: Q01DX009 (sc), vehicle: other 118 % of control | endpoint: median survival time, dose: 8.0 mg/kg/injection, schedule: Q03HX008 (ip), vehicle: other 87 % of control | endpoint: median survival time, dose: 8.0 mg/kg/injection, schedule: Q03HX008 (oral), vehicle: Klucel (hydroxypropylcellulose) (HPC) 122 % of control | endpoint: median survival time, dose: 8.0 mg/kg/injection, schedule: Q03HX016 (oral), vehicle: Klucel (hydroxypropylcellulose) (HPC) 100 % of control | endpoint: median survival time, dose: 8.0 mg/kg/injection, schedule: Q03HX024 (ip), vehicle: other 112 % of control | endpoint: median survival time, dose: 8.0 mg/kg/injection, schedule: Q03HX024 (oral), vehicle: Klucel (hydroxypropylcellulose) (HPC) 88 % of control | endpoint: median survival time, dose: 16.0 mg/kg/injection, schedule: Q01DX009 (ip), vehicle: other 100 % of control | endpoint: median survival time, dose: 16.0 mg/kg/injection, schedule: Q01DX009 (oral), vehicle: Klucel (hydroxypropylcellulose) (HPC) 122 % of control | endpoint: median survival time, dose: 16.0 mg/kg/injection, schedule: Q01DX009 (sc), vehicle: other 93 % of control | endpoint: median survival time, dose: 16.0 mg/kg/injection, schedule: Q03HX008 (oral), vehicle: Klucel (hydroxypropylcellulose) (HPC) 111 % of control | endpoint: median survival time, dose: 16.0 mg/kg/injection, schedule: Q03HX016 (oral), vehicle: Klucel (hydroxypropylcellulose) (HPC) 111 % of control | endpoint: median survival time, dose: 16.0 mg/kg/injection, schedule: Q03HX024 (oral), vehicle: Klucel (hydroxypropylcellulose) (HPC) 94 % of control
